The term EC50 denotes the concentration giving half of the maximal effect.

In data set [1] the test system is GBM0308 CSCs. The data set is described as follows: Dose-response killing of GBM CSCs (PI/Hoechst, Celigo cytometer). In kind it is cell-based. The source says: (§1) The inventors first evaluated a cohort of seven rocaglate translation inhibitors (1, 3-7, and 9, FIG. 1A and Table 1, compounds 2 and 8 were not tested due to unavailability). To assay for compounds that selectively affect GBM CSCs, the inventors employed the patient-derived tumor-initiating cell (TIC) cell line […] that forms neurospheres (consisting exclusively of tumor-initiating cells or CSCs) when cultured in neurobasal (NBE) medium. Upon exposure to serum and growth factor withdrawal, however, the cell line differentiates, acquires a flattened morphology, and forms a non-CSC population.^20 Thus, compounds can be tested in parallel to assess their effect on GBM CSCs vs. GBM non-CSCs as separate populations with a clean and robust response. This approach has been previously used to perform RNAi-based genetic screens to identify modulators of CSCs.^20 In this study, GBM0308 cells, cultured in stem cell conditions to form CSCs or in medium containing serum to induce differentiation into a non-CSC population, were treated in parallel with compounds at varying doses. Three days post-treatment, propidium iodide (PI) and Hoechst staining were performed and quantified using a Celigo image cytometer. Hoechst dye stained all […] nucleated cells, while PI exclusively stained dead cells. Cell viability and the percentage of cell death were then determined.
(§2) Cell Culture: Glioblastoma stem cell lines GBM0308, BT145, and BT112 were cultured in neurobasal (NBE medium) containing N-2 and B-27 supplements, EGF, bFGF, L-glutamine, and Penicillin-Streptomycin), as described previously.^19 Adherent GBM cells were cultured in serum-containing DMEM media (Invitrogen) supplemented with 10% fetal bovine serum (Corning Cellgro™). Cells were incubated at 37° C. and 5% CO2 to allow neurosphere formation. For seeding and subculturing, the neurospheres were gently trypsinized with 0.025% trypsin to form a single-cell suspension.
(§3) Dose-Response Testing in GBM Cells: Briefly, on day 1, cells were seeded in triplicate. For CSCs, 1500 cells/well were plated in a low attachment 96-well plate with NBE media and incubated for 3 days at 37° C. and 5% CO2 to allow the formation of neurospheres. For non-CSCs, 3000 cells/well were plated in a 96-well plate with DMEM media supplemented with 10% FBS. Similarly, the assay plates were also incubated for the same duration. Compound treatments started on day 4. Each compound was resuspended in DMSO and then diluted to different concentrations in media to a final concentration of DMSO less than 1%. The compounds were added at concentrations of 10, 3.3, 1.11, 0.37, 0.12, 0.041, 0.013, and 0.004 µM, respectively. DMSO-treated cells served as a control. After 72 h incubation with the compounds, fluorescent stains, propidium iodide, and Hoechst 33342 (Life Technologies, Carlsbad, CA), were used to stain the GBM cells to determine cell viability. A staining solution in 1×PBS was prepared by mixing PI and Hoechst 33342 to working concentrations of 2.5 μM and 20 μM, respectively. 20 μL of this staining solution was added per well, and plates were incubated at 37° C. and 5% CO2 for 60 min. After incubation, plates were read by Celigo imaging cytometer using an inbuilt Celigo application; Cell Viability (Dead+Total). For the viability measurement, the total number of neurospheres/cells and dead neurospheres/cells in each well were counted by the cytometer. The percentage of PI+ cells was normalized to DMSO and plotted against the drug concentration to calculate the EC50 with a four-parameter, variable-slope dose-response curve with an upper constraint of <100% dead cells and a lower constraint of =0% dead cells (GraphPad Prism v.10.0.0). For all dose response experiments, the experimental maximal efficacy (maximum observed % cell death) is reported. Relative EC50 values are reported for all compounds killing >50% of cells.

The test system of data set [2] is GBM0308 non-CSCs. The data set is described as follows: Dose-response killing of GBM non-CSCs (PI/Hoechst, Celigo cytometer). It counts as cell-based. The following applies: for Emax / EC50: Homo sapiens; for Emax / Non-CSCs Max. observed efficacy (% dead cells): 72 h; for EC50: read-out: Non-CSC EC50 (μM).
Source text: as §1, §2, §3

Setting [3] is: Homo sapiens, 72 h, read-out: CSC Max. observed efficacy (% dead cells), Table 7, cell line not given.
Setting [4] is: Homo sapiens, read-out: CSC EC50 (μM), Table 7, cell line not given.
[5] abbreviates: read-out: Non-CSC Max. observed efficacy (% dead cells), Table 7, cell line not given.
The mark [6] stands for this setting: Table 2, GBM0308 CSCs, 72 h, highest tested concentration 10 μM.
[7] abbreviates: Table 2, GBM0308 CSCs, 72 h treatment, relative EC50, read-out: CSCs EC50.
Setting [8] is: Table 2, GBM0308 non-CSCs, highest tested concentration 10 μM.
Where [9] appears, read: Homo sapiens, 72 h, read-out: CSCs EC50 (μM), Table 2, GBM0308 CSCs, 72 h treatment, relative EC50.
[10] abbreviates: Homo sapiens, 72 h, read-out: CSCs Max. observed efficacy (% dead cells), Table 2, GBM0308 CSCs, 72 h, highest tested concentration 10 μM.
[11] abbreviates: read-out: Non-CSCs Max. observed efficacy (% dead cells), Table 2, GBM0308 non-CSCs, highest tested concentration 10 μM.
[12] abbreviates: Table 1, GBM0308 CSCs, 72 h, up to 10 μM.
Setting [13] is: Table 1, GBM0308 CSCs, 72 h treatment, relative EC50, given for compounds causing at least 50% cell death, read-out: CSCs EC50.
The mark [14] stands for this setting: Table 1, GBM0308 non-CSCs, up to 10 μM.

Where two headings read alike, the source gives them in different places.

Turning to `COc1cc(OC)c2c(c1)O[C@@]1(c3ccc(Br)cc3)[C@H](c3ccccc3)[C@@H](C(=O)NS(=O)(=O)N3CCOCC3)[C@@H](O)[C@@]21O` [ZW-12-38, (1R,2R,3S,3aR,8bS)-3a-(4-bromophenyl)-1,8b-dihydroxy-6,8-dimethoxy-N-(morpholinosulfonyl)-3-phenyl-2,3,3a,8b-tetrahydro-1H-cyclopenta[b]benzofuran-2-carboxamide], the Emax in data set [1] (setting [3]) was determined as 95%; in data set [2] (setting [5]), 19%. The EC50 in data set [1] (setting [4]) came out at 0.7 µM; in data set [2] it was 0.463 µM.
On to `COc1cc(OC)c2c(c1)O[C@@]1(c3ccc(Br)cc3)[C@H](c3ccccc3)[C@@H](C(=O)O)[C@@H](O)[C@@]21O` [(−)-11], for which the “CSCs Max. observed efficacy (% dead cells)” value in data set [1] (setting [6]) came out at 92%. Further, the EC50 in data set [1] (setting [7]) turned out to be 0.121 µM. Besides, the “Non-CSCs Max. observed efficacy (% dead cells)” value in data set [2] (setting [8]) is on record as 25%.
Regarding `COc1cc(OC)c2c(c1)O[C@@]1(c3ccc(Br)cc3)[C@H](c3ccccc3)[C@@H](C(=O)NS(C)(=O)=O)[C@@H](O)[C@@]21O` [(−)-19, (1R,2R,3S,3aR,8bS)-3a-(4-bromophenyl)-1,8b-dihydroxy-6,8-dimethoxy-N-(methylsulfonyl)-3-phenyl-2,3,3a,8b-tetrahydro-1H-cyclopenta[b]benzofuran-2-carboxamide], the EC50 was 0.095 µM in data set [1] (setting [9]) and below 0.125 µM in data set [1] (Homo sapiens, read-out: CSC EC50, text, GBM0308 CSCs). The results for the Emax in data set [1] (setting [10]) and in data set [2] (setting [11]) were 92% and 20%, respectively.
Consider `COc1cc(OC)c2c(c1)O[C@@]1(c3ccc(Br)cc3)[C@H](c3ccccc3)[C@@H](C(=O)NS(=O)(=O)N(C)C)[C@@H](O)[C@@]21O` [BUCMD790 (—), (1R,2R,3S,3aR,8bS)-3a-(4-bromophenyl)-N-(N,N-dimethylsulfamoyl)-1,8b-dihydroxy-6,8-dimethoxy-3-phenyl-2,3,3a,8b-tetrahydro-1H-cyclopenta[b]benzofuran-2-carboxamide], for which the Emax in data set [1] (Homo sapiens, 72 h, Table 7, cell line not given, read-out: CSC Max. observed efficacy (% dead cells)) is 93%; in data set [2] (Table 7, cell line not given, read-out: Non-CSC Max. observed efficacy (% dead cells)), 26%. For the same compound, the EC50 in data set [1] (Homo sapiens, Table 7, cell line not given, read-out: CSC EC50) is 0.045 µM.
As to `COc1cc(OC)c2c(c1)O[C@@]1(c3ccc(C(F)(F)F)cc3)[C@H](c3ccccc3)[C@@H](C(=O)NS(=O)(=O)N(C)C)[C@@H](O)[C@@]21O` [ZW-12-29, (1R,2R,3S,3aR,8bS)—N—(N,N-dimethylsulfamoyl)-1,8b-dihydroxy-6,8-dimethoxy-3-phenyl-3a-(4-(trifluoromethyl)phenyl)-2,3,3a,8b-tetrahydro-1H-cyclopenta[b]benzofuran-2-carboxamide], the Emax in data set [1] (setting [3]) was 57%; in data set [2] (setting [5]), 26%. Besides, the EC50 in data set [1] (setting [4]) was 5.63 µM.
With “methyl rocaglate [(−)-3, reference compound]”, the “CSCs Max. observed efficacy (% dead cells)” value in data set [1] (setting [12]) amounted to 75%. Moreover, the EC50 in data set [1] (setting [13]) was 1.64 µM. In data set [2] (setting [14]), the “Non-CSCs Max. observed efficacy (% dead cells)” value was 23%.
For aglaroxin C [rac-4, reference compound], the “CSCs Max. observed efficacy (% dead cells)” value in data set [1] (setting [12]) was 42%; in data set [1] (Table 1, GBM0308 CSCs, 72 h, up to 10 μM, listed as 4), at most 50%. Moreover, the “Non-CSCs Max. observed efficacy (% dead cells)” value in data set [2] (setting [14]) came out at 26%.
With `CCN(CC)S(=O)(=O)NC(=O)[C@H]1[C@@H](O)[C@@]2(O)c3c(OC)cc(OC)cc3O[C@@]2(c2ccc(Br)cc2)[C@@H]1c1ccccc1` [ZW-12-35, (1R,2R,3S,3aR,8bS)-3a-(4-bromophenyl)-N—(N,N-diethylsulfamoyl)-1,8b-dihydroxy-6,8-dimethoxy-3-phenyl-2,3,3a,8b-tetrahydro-1H-cyclopenta[b]benzofuran-2-carboxamide], the Emax was 92% in data set [1] (setting [3]) and 16% in data set [2] (setting [5]). Further, the half-maximal effective concentration (EC50) in data set [1] (setting [4]) amounted to 1.18 µM.
For the compound `COC(=O)[C@H]1[C@@H](O)[C@@]2(O)c3c(OC)cc(OC)cc3O[C@@]2(c2ccc(Br)cc2)[C@@H]1c1ccccc1` [(−)-9, reference compound], the “CSCs Max. observed efficacy (% dead cells)” value in data set [1] (setting [12]) is 88%. Besides, the half-maximal effective concentration (EC50) in data set [1] (setting [13]) worked out at 0.151 µM. Further, the “Non-CSCs Max. observed efficacy (% dead cells)” value in data set [2] (setting [14]) was determined as 25%.
With `COc1cc(OC)c2c(c1)O[C@@]1(c3ccc(Br)cc3)[C@H](c3ccccc3)[C@@H](C(=O)NS(=O)(=O)N3CC(C)C3)[C@@H](O)[C@@]21O` [ZW-12-36, (1R,2R,3S,3aR,8bS)-3a-(4-bromophenyl)-1,8b-dihydroxy-6,8-dimethoxy-N-((3-methylazetidin-1-yl)sulfonyl)-3-phenyl-2,3,3a,8b-tetrahydro-1H-cyclopenta[b]benzofuran-2-carboxamide], the Emax came out at 96% in data set [1] (setting [3]) and 11% in data set [2] (setting [5]). Moreover, the EC50 in data set [1] (setting [4]) came out at 0.804 µM.
`COc1cc(OC)c2c(c1)O[C@@]1(c3ccc(Br)cc3)[C@H](c3ccccc3)[C@@H](C(=O)NS(=O)(=O)N3CCCC3)[C@@H](O)[C@@]21O` [ZW-12-37, (1R,2R,3S,3aR,8bS)-3a-(4-bromophenyl)-1,8b-dihydroxy-6,8-dimethoxy-3-phenyl-N-(pyrrolidin-1-ylsulfonyl)-2,3,3a,8b-tetrahydro-1H-cyclopenta[b]benzofuran-2-carboxamide]: the Emax in data set [1] (setting [3]) is 95%; in data set [2] (setting [5]), 25%. Moreover, the EC50 in data set [1] (setting [4]) was 0.7 µM; in data set [2], 0.401 µM.
For `COc1ccc([C@@]23Oc4cc(OC)cc(OC)c4[C@]2(O)[C@H](O)[C@H](C(=O)O)[C@H]3c2ccccc2)cc1` [(−)-10, rocaglaic acid], the “CSCs Max. observed efficacy (% dead cells)” value in data set [1] (setting [6]) worked out at 68%. Also, the “Non-CSCs Max. observed efficacy (% dead cells)” value in data set [2] (setting [8]) is 27%.
Regarding `COc1ccc([C@@]23Oc4cc(OC)cc(OC)c4[C@]2(O)[C@H](O)[C@H](C(=O)NS(=O)(=O)N(C)C)[C@H]3c2ccccc2)cc1` [(−)-16, (1R,2R,3S,3aR,8bS)—N—(N,N-dimethylsulfamoyl)-1,8b-dihydroxy-6,8-dimethoxy-3a-(4-methoxyphenyl)-3-phenyl-2,3,3a,8b-tetrahydro-1H-cyclopenta[b]benzofuran-2-carboxamide], the EC50 in data set [1] (setting [9]) is 1 to 10 µM; in data set [1] (read-out: CSCs EC50, Table 2, GBM0308 CSCs, 72 h treatment, relative EC50), 1.73 µM. Moreover, the Emax in data set [1] (setting [10]) stood at 76%; in data set [2] (setting [11]), 23%.
On to `COc1ccc([C@@]23Oc4cc(OC)cc(OC)c4[C@]2(O)[C@H](O)[C@H](C(=O)O)[C@H]3c2ccccc2)cc1` [(+)-10, rocaglaic acid], for which the “cytotoxic activity against CSCs, in words” value in data set [1] (GBM0308 CSCs) is on record as “limited activity”. The “CSCs Max. observed efficacy (% dead cells)” value in data set [1] (setting [6]) stood at 58%. Moreover, the EC50 in data set [1] (setting [7]) came out at 7.08 µM. Moreover, the “cytotoxic activity against non-CSCs, in words” value in data set [2] (GBM0308 non-CSCs) was “limited activity”. Besides, in data set [2] (setting [8]), the “Non-CSCs Max. observed efficacy (% dead cells)” value is 30%.

The values are drawn from patent publication US12612395B2, “Rocaglate derivatives and uses thereof” (TRUSTEES OF BOSTON UNIVERSITY, priority 2023, dated 2026).
